Some test systems named below: Jurkat Cell Line; EuMyc Lymphoma Cell Line; 9E10 Cell Line; HS578 Cell Line; MCF7 Cell Line; Raji Cell Line; MD-MDA-231 Cell Line; SKBR Cell Line; T47D Cell Line; 70Z/3 Cell Line.
Assay in all cases: cell viability loss in various cell types – MTT absorbance, EuMyc, HS578, 70Z/3, T47D, SKBR, late-stage follow-up (AID 504928)
What all share (conditions): tumor cell line panel viability, at 10 µM, hits give low values

Active and inactive are the calls of the source. The rule behind the calls is not given here.

For the molecule `O=c1cc(N2CCN(c3cccc(Cl)c3)CC2)[nH]c(=O)n1C1CCCCC1`, the viability fold change in the experiment with Jurkat Cell Line is 0.19; in the experiment with EuMyc Lymphoma Cell Line it was 0.63 (inactive); in the experiment on 9E10 Cell Line, 0.8 (inactive); in the experiment on HS578 Cell Line, 0.16; in the experiment on MCF7 Cell Line it was 0.17; in the experiment with Raji Cell Line, 0.19. Moreover, the viability fold change is 0.11 in the experiment on MD-MDA-231 Cell Line, 0.19 in the experiment with SKBR Cell Line, 0.19 in the experiment with T47D Cell Line and 0.5 in the experiment with 70Z/3 Cell Line.

The values above are taken from PubChem BioAssay AID504928 (The Scripps Research Institute Molecular Screening Center, 2011).
